The source of these data is PMC5059578, “Construction of a Turn Off-On-Off Fluorescent System Based on Competitive Coordination of Cu^2+ between 6,7-Dihydroxycoumarin and Pyrophosphate Ion for Sensitive Assay of Pyrophosphatase Activity” (Journal of Analytical Methods in Chemistry, 2016).

In this assay the target is T1, Baker's yeast inorganic pyrophosphatase (PPase, EC 3.6.1.1) (Saccharomyces cerevisiae, UniProt P00817).
T1 construct: gene IPP1
The assay is described as follows: Fluorescent Cu2+-DHC-PPi displacement assay of PPase activity after preincubation with NaF. It is filed as biochemical.

T1 sequence (P00817 2-287): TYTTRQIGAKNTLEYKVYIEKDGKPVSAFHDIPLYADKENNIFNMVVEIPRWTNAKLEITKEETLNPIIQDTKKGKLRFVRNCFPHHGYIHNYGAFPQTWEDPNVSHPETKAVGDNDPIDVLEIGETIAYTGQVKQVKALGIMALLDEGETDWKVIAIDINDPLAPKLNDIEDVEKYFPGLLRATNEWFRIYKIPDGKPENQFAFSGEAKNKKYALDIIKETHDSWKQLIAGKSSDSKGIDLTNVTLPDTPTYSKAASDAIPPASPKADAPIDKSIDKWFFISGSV

For the molecule `[F-].[Na+]` [NaF], the IC50 is approximately 18.2 µM.
